Measurements: ChEMBL document CHEMBL3797126, “Oxaspirol B with p97 Inhibitory Activity and Other Oxaspirols from Lecythophora sp. FL1375 and FL1031, Endolichenic Fungi Inhabiting Parmotrema tinctorum and Cladonia evansii” (J Nat Prod, 2016)
Blank lines part the entries; values can stand above or below the compound they belong to. The source made the active and inactive calls. The rule behind the calls is not given here.

Key:
[1] = molecular target: T1, Transitional endoplasmic reticulum ATPase (Homo sapiens, UniProt P55072); assay: Inhibition of p97 (unknown origin) ATPase activity up to 200 uM after 10 mins by malachite green dye based visible spectrophotometry
Target sequence in this assay (P55072 2-806 limits assumed): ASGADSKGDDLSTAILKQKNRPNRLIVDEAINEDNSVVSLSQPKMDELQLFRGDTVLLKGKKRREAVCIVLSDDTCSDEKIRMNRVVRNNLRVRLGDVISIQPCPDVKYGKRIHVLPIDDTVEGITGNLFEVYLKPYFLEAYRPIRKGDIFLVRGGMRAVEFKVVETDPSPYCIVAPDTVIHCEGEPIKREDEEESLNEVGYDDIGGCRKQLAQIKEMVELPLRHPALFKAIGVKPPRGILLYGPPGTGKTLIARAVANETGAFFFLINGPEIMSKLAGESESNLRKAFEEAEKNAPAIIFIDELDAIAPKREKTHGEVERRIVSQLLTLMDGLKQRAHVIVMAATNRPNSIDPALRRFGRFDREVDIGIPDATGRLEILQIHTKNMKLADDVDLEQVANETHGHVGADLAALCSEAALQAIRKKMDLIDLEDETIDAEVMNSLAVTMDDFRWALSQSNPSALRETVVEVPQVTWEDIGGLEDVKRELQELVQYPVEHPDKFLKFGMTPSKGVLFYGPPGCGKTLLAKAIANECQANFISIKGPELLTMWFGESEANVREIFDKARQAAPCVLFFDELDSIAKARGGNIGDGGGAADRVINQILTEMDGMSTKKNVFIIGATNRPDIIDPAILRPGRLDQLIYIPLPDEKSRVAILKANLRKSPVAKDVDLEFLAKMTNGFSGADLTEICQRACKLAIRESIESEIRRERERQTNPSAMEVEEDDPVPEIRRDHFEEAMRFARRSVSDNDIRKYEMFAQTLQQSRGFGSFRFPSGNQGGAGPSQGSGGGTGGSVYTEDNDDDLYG

[2] = molecular target: T1, Transitional endoplasmic reticulum ATPase; assay: Reversible inhibition of p97 (unknown origin) ATPase activity after prolonged incubation followed by dialysis
Target sequence in this assay (P55072 2-806 limits assumed): as above

[3] = molecular target: T1, Transitional endoplasmic reticulum ATPase; conditions: 100 uM
Target sequence in this assay (P55072 2-806 limits assumed): as above
Description: Reversible inhibition of p97 (unknown origin) ATPase activity at 100 uM after prolonged incubation of 6 hrs followed by dialysis for 2 hrs by malachite green dye based visible spectrophotometry

[4] = molecular target: Vesicle-fusing ATPase (Homo sapiens) (UniProt P46459); assay: Inhibition of type 2 AAA+ N-ethylmaleimide sensitive factor (unknown origin) up to 200 uM
[5] = molecular target: T1, Transitional endoplasmic reticulum ATPase; assay: Inhibition of p97 (unknown origin) ATPase in HEK293 cells expressing UbG76VGFP fusion protein assessed as level of UbG76VGFP rescued by measuring GFP fluorescence loss by flow cytometry; format: cell-based
Target sequence in this assay (P55072 2-806 limits assumed): as above

[6] = molecular target: T1, Transitional endoplasmic reticulum ATPase; assay: Inhibition of p97 (unknown origin) ATPase activity after 10 mins by malachite green dye based visible spectrophotometry
Target sequence in this assay (P55072 whole entry): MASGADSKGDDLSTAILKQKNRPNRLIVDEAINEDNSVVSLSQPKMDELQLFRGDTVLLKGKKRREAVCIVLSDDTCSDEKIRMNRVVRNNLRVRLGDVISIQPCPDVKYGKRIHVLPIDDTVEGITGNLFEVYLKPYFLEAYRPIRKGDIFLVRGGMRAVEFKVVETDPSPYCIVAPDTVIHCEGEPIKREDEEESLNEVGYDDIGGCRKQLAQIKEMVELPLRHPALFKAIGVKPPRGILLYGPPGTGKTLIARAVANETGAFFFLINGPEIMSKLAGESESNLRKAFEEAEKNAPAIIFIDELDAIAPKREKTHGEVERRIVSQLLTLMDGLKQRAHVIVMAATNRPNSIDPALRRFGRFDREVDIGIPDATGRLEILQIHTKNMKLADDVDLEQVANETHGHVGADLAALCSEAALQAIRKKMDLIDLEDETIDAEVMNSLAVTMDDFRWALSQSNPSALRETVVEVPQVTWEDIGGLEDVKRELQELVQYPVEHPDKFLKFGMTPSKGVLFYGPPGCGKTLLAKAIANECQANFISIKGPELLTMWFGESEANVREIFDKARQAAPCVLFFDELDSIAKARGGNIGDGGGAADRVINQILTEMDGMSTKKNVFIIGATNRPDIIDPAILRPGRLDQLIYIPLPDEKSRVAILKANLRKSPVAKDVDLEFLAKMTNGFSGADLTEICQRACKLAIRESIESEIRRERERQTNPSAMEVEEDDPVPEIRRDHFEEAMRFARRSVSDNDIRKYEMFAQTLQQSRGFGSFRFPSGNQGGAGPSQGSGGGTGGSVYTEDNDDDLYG

[7] = molecular target: Transitional endoplasmic reticulum ATPase (Homo sapiens, UniProt P55072, C209A); assay: Inhibition of p97-C209A mutant (unknown origin) after 10 mins by malachite green dye based visible spectrophotometry
[8] = molecular target: T1, Transitional endoplasmic reticulum ATPase; assay: Inhibition of p97 (unknown origin) ATPase in HEK293 cells expressing T cell receptor alpha-GFP assessed as level of T cell receptor alpha-GFP rescued by flow cytometry; format: cell-based
Target sequence in this assay (P55072 2-806 limits assumed): as the sequence (P55072 2-806 limits assumed) above

[9] = molecular target: Transitional endoplasmic reticulum ATPase (Homo sapiens, UniProt P55072, C522A); assay: Inhibition of p97-C522A mutant (unknown origin) after 10 mins by malachite green dye based visible spectrophotometry
[10] = molecular target: ATP-dependent clpX-like chaperone, mitochondrial (Homo sapiens) (UniProt O76031); assay: Inhibition of type 1 AAA+ chaperone ClpX (unknown origin) up to 200 uM
[11] = molecular target: chaperonin GroEL (Escherichia coli) (UniProt P0A6F5); assay: Inhibition of Escherichia coli chaperonin GroEL up to 200 uM
[12] = molecular target: T1, Transitional endoplasmic reticulum ATPase; conditions: 200 uM
Target sequence in this assay (P55072 2-806 limits assumed): as above
Description: Inhibition of p97 cysteine-less mutant (unknown origin) at 200 uM after 10 mins by malachite green dye based visible spectrophotometry

Vesicle-fusing ATPase (Homo sapiens), sequence (P46459 whole entry, the tested form may be a part): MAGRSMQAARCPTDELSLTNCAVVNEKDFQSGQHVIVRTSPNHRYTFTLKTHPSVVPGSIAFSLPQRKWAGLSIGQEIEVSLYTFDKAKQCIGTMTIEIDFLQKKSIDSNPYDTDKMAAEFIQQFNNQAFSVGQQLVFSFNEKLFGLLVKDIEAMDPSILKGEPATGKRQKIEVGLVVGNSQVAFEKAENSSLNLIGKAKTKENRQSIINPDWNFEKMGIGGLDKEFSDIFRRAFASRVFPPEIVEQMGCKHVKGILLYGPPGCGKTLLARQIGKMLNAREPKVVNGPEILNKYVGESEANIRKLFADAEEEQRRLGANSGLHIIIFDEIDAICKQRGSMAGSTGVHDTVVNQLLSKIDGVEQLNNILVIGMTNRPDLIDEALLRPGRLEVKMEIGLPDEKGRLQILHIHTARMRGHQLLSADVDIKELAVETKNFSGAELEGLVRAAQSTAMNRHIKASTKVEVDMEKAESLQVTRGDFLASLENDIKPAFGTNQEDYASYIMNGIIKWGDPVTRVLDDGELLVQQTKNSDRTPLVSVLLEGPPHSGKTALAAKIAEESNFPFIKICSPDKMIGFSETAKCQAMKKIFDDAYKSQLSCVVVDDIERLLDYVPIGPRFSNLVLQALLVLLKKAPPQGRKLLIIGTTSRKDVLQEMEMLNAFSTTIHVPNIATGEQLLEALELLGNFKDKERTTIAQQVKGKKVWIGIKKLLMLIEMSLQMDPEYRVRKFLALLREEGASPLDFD
ATP-dependent clpX-like chaperone, mitochondrial (Homo sapiens), sequence (O76031 whole entry): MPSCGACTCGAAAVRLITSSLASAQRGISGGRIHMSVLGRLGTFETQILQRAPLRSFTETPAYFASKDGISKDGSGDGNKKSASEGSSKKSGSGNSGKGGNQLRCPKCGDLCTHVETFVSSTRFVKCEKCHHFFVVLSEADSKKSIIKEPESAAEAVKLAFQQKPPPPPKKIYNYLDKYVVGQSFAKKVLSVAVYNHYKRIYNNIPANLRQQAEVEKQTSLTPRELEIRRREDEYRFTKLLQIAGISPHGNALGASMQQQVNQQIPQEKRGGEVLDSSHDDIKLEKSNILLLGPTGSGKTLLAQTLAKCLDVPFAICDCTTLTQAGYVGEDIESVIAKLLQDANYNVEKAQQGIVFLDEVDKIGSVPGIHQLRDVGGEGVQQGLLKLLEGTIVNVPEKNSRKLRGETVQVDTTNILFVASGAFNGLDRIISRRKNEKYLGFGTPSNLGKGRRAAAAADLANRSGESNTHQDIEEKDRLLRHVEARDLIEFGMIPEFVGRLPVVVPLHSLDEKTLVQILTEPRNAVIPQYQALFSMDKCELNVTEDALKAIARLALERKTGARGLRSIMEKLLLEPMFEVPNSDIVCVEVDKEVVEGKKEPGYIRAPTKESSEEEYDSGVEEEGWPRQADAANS
chaperonin GroEL (Escherichia coli), sequence (P0A6F5 whole entry, looked up): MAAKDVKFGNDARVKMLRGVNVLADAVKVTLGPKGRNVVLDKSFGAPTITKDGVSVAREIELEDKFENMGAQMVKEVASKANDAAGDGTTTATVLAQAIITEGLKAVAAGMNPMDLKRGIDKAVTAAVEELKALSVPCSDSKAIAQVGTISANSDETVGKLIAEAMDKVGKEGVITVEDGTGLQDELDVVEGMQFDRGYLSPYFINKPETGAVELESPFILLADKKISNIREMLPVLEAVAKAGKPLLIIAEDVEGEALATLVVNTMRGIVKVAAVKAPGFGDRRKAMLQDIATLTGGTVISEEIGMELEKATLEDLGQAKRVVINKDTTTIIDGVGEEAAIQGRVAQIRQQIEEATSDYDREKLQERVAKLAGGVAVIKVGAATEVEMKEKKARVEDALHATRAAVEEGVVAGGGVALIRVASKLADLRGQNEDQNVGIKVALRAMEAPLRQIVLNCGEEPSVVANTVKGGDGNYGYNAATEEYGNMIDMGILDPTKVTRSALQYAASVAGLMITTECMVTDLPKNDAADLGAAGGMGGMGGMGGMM
Transitional endoplasmic reticulum ATPase (Homo sapiens, UniProt P55072, C522A), sequence (P55072 2-806 C522A limits assumed): as the sequence (P55072 2-806 limits assumed) above, with C521A counted along it
Transitional endoplasmic reticulum ATPase (Homo sapiens, UniProt P55072, C209A), sequence (P55072 2-806 C209A limits assumed): as the sequence (P55072 2-806 limits assumed) above, with C208A counted along it

inhibition [1]: inactive
SMILES: C=C1OC(=O)[C@@]2(C1=O)[C@H](/C=C/C=C/CCC)C=C[C@@H](OC(C)=O)[C@@H]2OC(C)=O

inhibition [1]: inactive
SMILES: C=C1OC(=O)[C@]2(C1=O)[C@H](/C=C/C=C/CCC)C=C[C@@H](OC(C)=O)[C@@H]2OC(C)=O

inhibition [2]: inactive
SMILES: C[C@H]1CCC/C=C/C(=O)c2c(O)cc(O)cc2CC(=O)O1

SMILES: C=C1OC(=O)C2(C1=O)[C@H](/C=C/C=C/CCC)C=C[C@@H](O)[C@@H]2O (mixture of isomers)
inhibition [3]: Active
inhibition [4]: inactive
inhibition [5]: Dose-dependent effect
IC50 [6]: 31.2 µM
IC50 [7]: 18 µM
inhibition [8]: Dose-dependent effect
IC50 [9]: 26.3 µM
inhibition [10]: inactive
inhibition [11]: inactive
inhibition [12]: inactive
